Patent publication US12397016B2, “Sulfated oligosaccharides having anti-inflammatory activity” (The University of North Carolina at Chapel Hill, priority 2017, dated 2025)
Entries after “also recorded” stand apart in the source; their conditions may differ.

System: APAP-induced liver injury in mice
Experiment: Delayed treatment 6 h post-APAP, comparison with NAC
Type: in vivo, mouse
Conditions: read at 24 h, FIG. 5D
Protocol: To compare the 18-mer's effectiveness to N-acetyl cysteine (NAC), 300 mg kg^−1 NAC at pH 7.5 in sterile saline was injected intraperitoneal 30 min post-APAP. In a separate experiment, 300 mg kg^−1 NAC or 0.34 mg/kg 18-mer were administered 6 h post-APAP, then at 18 h post-APAP, 0.17 mg kg^−1 18-mer was administered to the 18-mer treated group. At 24 h post-APAP, mice were euthanized and blood and liver tissue were collected.
Plasma ALT was measured using the ALT Infinity reagent (Thermo Fisher Scientific) following the manufacturer's instructions. Plasma TNF-α was measured using Mouse TNF-α DuoSet Kit (R&D Systems, Minneapolis, Minnesota, United States of America) according to the manufacturer's instructions. Plasma HMGB1 levels were determined using HMGB1 ELISA Kit (Tecan US of Tecan Trading AG, Mannedorf, Switzerland) according to the manufacturer's instructions. Plasma syndecan-1 levels were determined using Mouse Syndecan-1 ELISA (CellSciences) according to manufacturer's instructions. Hepatic GSH levels were determined using Glutathione Assay Kit (Cayman Chemicals, Ann Arbor, Michigan, United States of America) according to the manufacturer's instructions.

## CC(=O)N[C@@H](CS)C(=O)O [NAC, N-acetyl-cysteine]
  protective effect (ALT) when administered six hours post-APAP: loses its protective effect; also recorded: loses effectiveness
